Assay results taken from US12509444B2, “Compounds and methods for CD73 modulation and indications therefor” (Plexxikon Inc., priority 2019, dated 2025).

Legend:
[1] = target: T1, Human CD73 (amino acid residues 27-549) (Homo sapiens, UniProt P21589); experiment: CD73 enzymatic assay (luciferase-based indirect assay, CellTiter-Glo); type: biochemical; conditions: 0.4 nM CD73, 150 μM AMP, 1 hour at room temperature
T1 construct: Human CD73 (amino acid residues 27-549); His tag (N); made in house; host or cells: E. coli
T1 sequence (P21589 27-549): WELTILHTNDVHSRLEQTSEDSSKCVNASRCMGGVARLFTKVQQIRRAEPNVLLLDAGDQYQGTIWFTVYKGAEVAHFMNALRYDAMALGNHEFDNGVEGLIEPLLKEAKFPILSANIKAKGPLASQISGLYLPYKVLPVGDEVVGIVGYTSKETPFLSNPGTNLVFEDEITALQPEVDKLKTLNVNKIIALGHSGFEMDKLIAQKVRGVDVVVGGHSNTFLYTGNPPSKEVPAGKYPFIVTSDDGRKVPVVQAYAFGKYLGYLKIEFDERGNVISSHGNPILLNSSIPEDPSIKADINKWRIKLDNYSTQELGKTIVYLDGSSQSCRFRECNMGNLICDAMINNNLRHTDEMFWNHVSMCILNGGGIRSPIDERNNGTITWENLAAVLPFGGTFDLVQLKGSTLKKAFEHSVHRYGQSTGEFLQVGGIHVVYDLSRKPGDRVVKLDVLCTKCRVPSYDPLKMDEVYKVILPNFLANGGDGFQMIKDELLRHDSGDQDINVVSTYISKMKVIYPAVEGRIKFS
In short: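 His-tagged human CD73 (27-549) from E. coli, 0.4 nM, with 150 μM AMP in 50 mM HEPES pH 7.4, 0.01% Tween 20; 1 h at room temperature. AMP remaining read by CellTiter-Glo 2.0 luminescence with 1 μM final ATP after 30 min. IC50 from nonlinear regression of % inhibition.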

human CD73 = target: T2, human CD73 (Homo sapiens, UniProt P21589); experiment: Inhibitor activity against CD73 in cell based assay (CD73 expressing CHO-K1 cells); conditions: CHO-K1 cells expressing human CD73, 150 μM AMP, 4 hours of incubation; read-out: CHO-K1 CELL VARIANT: CD73 IC50
T2 construct: expressed in transfected cells
T2 sequence (P21589 27-549): T1 sequence (P21589 27-549)
In short: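 Stably transfected CHO-K1 cells expressing human CD73 (1×10^4/well) incubated 4 h with compound (8-point 1:3 titration, top 10 μM final, 0.2% DMSO) and 150 μM AMP. Residual AMP in supernatant measured by CellTiter-Glo luminescence with 1 μM ATP after 30 min at room temperature; IC50 by nonlinear regression of percent inhibition vs high/low controls.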

IC50 [1] [µM]	IC50 (human CD73) [µM]	Compound
0.001 to 10	0.001 to 10	C#CC1(NC(=O)O[C@@H]2CCN(c3cn[nH]c(=O)c3Cl)C2)CCCCC1 [P-0436, (R)-1-(5-chloro-6-oxo-1,6-dihydropyridazin-4-yl)pyrrolidin-3-yl (1-ethynylcyclohexyl)carbamate]
0.001 to 10	0.001 to 10	CC1(NC(=O)O[C@@H]2CCN(c3cn[nH]c(=O)c3Cl)C2)CCC(F)(F)CC1 [P-0437, (R)-1-(5-chloro-6-oxo-1,6-dihydropyridazin-4-yl)pyrrolidin-3-yl (4,4-difluoro-1-methylcyclohexyl)carbamate]
0.001 to 10	0.001 to 10	O=C(NC1CCN(C(=O)Nc2ncccc2F)CC1)O[C@@H]1CCN(c2cn[nH]c(=O)c2Cl)C1 [P-0438, (R)-1-(5-chloro-6-oxo-1,6-dihydropyridazin-4-yl)pyrrolidin-3-yl (1-((3-fluoropyridin-2-yl)carbamoyl)piperidin-4-yl)carbamate]
0.001 to 10	0.001 to 10	CC1(NC(=O)O[C@@H]2CCN(c3cnn(CCO)c(=O)c3Cl)C2)CC(F)(F)C1 [P-0439, (R)-1-(5-chloro-1-(2-hydroxyethyl)-6-oxo-1,6-dihydropyridazin-4-yl)pyrrolidin-3-yl (3,3-difluoro-1-methylcyclobutyl)carbamate]
0.001 to 10	0.001 to 10	O=C(NC1C2CCC1CC(F)(F)C2)O[C@@H]1CCN(c2cn[nH]c(=O)c2Cl)C1 (stereo partly drawn) [P-0440, (R)-1-(5-chloro-6-oxo-1,6-dihydropyridazin-4-yl)pyrrolidin-3-yl (3,3-difluorobicyclo[3.2.1]octan-8-yl)carbamate]
0.001 to 10	0.001 to 10	O=C(NC1CC2C(C1)C2(F)F)O[C@@H]1CCN(c2cn[nH]c(=O)c2Cl)C1 (stereo partly drawn) [P-0441, (R)-1-(5-chloro-6-oxo-1,6-dihydropyridazin-4-yl)pyrrolidin-3-yl (6,6-difluorobicyclo[3.1.0]hexan-3-yl)carbamate]
0.001 to 10	0.001 to 10	COc1ccc(CC(=O)N2CCC(NC(=O)O[C@@H]3CCN(c4cn[nH]c(=O)c4Cl)C3)CC2)cc1 [P-0442, (R)-1-(5-chloro-6-oxo-1,6-dihydropyridazin-4-yl)pyrrolidin-3-yl (1-(2-(4-methoxyphenyl)acetyl)piperidin-4-yl)carbamate]
0.001 to 10	0.001 to 10	O=C(NC1CCN(C(=O)Cc2ccc(F)cc2)CC1)O[C@@H]1CCN(c2cn[nH]c(=O)c2Cl)C1 [P-0443, (R)-1-(5-chloro-6-oxo-1,6-dihydropyridazin-4-yl)pyrrolidin-3-yl (1-(2-(4-fluorophenyl)acetyl)piperidin-4-yl)carbamate]
0.001 to 10	0.001 to 10	O=C(NC1CCN(C(=O)Cc2ccc(Cl)c(F)c2)CC1)O[C@@H]1CCN(c2cn[nH]c(=O)c2Cl)C1 [P-0444, (R)-1-(5-chloro-6-oxo-1,6-dihydropyridazin-4-yl)pyrrolidin-3-yl (1-(2-(4-chloro-3-fluorophenyl)acetyl)piperidin-4-yl)carbamate]
0.001 to 10	0.001 to 10	O=C(NC1CCN(C(=O)Cc2ccc(F)c(Cl)c2)CC1)O[C@@H]1CCN(c2cn[nH]c(=O)c2Cl)C1 [P-0445, (R)-1-(5-chloro-6-oxo-1,6-dihydropyridazin-4-yl)pyrrolidin-3-yl (1-(2-(3-chloro-4-fluorophenyl)acetyl)piperidin-4-yl)carbamate]
0.001 to 10	0.001 to 10	O=C(NC1CC2CCC2C1)O[C@@H]1CCN(c2cn[nH]c(=O)c2Cl)C1 (stereo partly drawn) [P-0446, (R)-1-(5-chloro-6-oxo-1,6-dihydropyridazin-4-yl)pyrrolidin-3-yl bicyclo[3.2.0]heptan-3-ylcarbamate]
0.001 to 10	0.001 to 10	O=C(N[C@@H]1CCC[C@H]1F)O[C@@H]1CCN(c2cn[nH]c(=O)c2Cl)C1 [P-0447, (R)-1-(5-chloro-6-oxo-1,6-dihydropyridazin-4-yl)pyrrolidin-3-yl ((1R,2R)-2-fluorocyclopentyl)carbamate]
